Columns and labels:
[1] = target: T1, ASIC1a (Rattus norvegicus, UniProt P55926); test: whole cell patch clamp electrophysiology, ASIC1a; assay type: cell-based; conditions: for Fraction of Control, ASIC1a - pH Dependency: 10 μM compound
T1 construct: expressed in transfected cells; host or cells: HEK cells according to b213
T1 sequence (P55926 1-526): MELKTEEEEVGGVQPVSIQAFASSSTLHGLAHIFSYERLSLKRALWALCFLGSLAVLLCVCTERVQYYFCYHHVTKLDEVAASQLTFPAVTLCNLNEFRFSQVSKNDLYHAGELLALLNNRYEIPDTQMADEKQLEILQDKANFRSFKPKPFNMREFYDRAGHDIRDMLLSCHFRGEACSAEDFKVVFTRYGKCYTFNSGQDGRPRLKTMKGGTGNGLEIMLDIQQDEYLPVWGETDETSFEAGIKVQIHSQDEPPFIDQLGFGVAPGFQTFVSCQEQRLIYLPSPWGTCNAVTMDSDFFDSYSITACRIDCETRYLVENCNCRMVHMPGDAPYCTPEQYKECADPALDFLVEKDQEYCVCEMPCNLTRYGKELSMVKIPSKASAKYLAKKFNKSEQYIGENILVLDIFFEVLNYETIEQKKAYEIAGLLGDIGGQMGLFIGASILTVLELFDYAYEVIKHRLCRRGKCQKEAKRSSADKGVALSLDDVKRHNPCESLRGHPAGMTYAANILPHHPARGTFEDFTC
Description: (§1) Another example of an in vitro assessment method consists of using mammalian heterologous expression systems, which are known to the skilled in the art, and include a variety of mammalian cell lines such as COS, HEK, e.g., HEK293and/or CHO, cells. Cell lines are transfected with gated ion channel(s) and used to perform electrophysiology as follows:
(§2) All experiments are performed at room temperature (20-25° C.) in voltage clamp using conventional whole cell patch clamp methods (Neher, E., et al. (1978) Pfluegers Arch 375:219-228).
(§3) The amplifier used is the EPC-9 (HEKA-electronics, Lambrect, Germany) run by a Macintosh G3 computer via an ITC-16 interface. Experimental conditions are set with the Pulse-software accompanying the amplifier. Data is low pass filtered and sampled directly to hard-disk at a rate of 3 times the cut-off frequency.
(§4) Pipettes are pulled from borosilicate glass using a horizontal electrode puller (Zeitz-lnstrumente, Augsburg, Germany). The pipette resistances are 2-3 MOhms in the salt solutions used in these experiments. The pipette electrode is a chloridized silver wire, and the reference is a silver chloride pellet electrode (In Vivo Metric, Healdsburg, USA) fixed to the experimental chamber. The electrodes are zeroed with the open pipette in the bath just prior to sealing.
(§5) Coverslips with the cells are transferred to a 15 μl experimental chamber mounted on the stage of an inverted microscope (IMT-2, Olympus) supplied with Nomarski optics. Cells are continuously superfused with extracellular saline at a rate of 2.5 ml/min. After giga-seal formation, the whole cell configuration is attained by suction. The cells are held at a holding voltage of −60 mV and at the start of each experiment the current is continuously measured for 45 s to ensure a stable baseline. Solutions of low pH (<7) are delivered to the chamber through a custom-made gravity-driven flowpipe, the tip of which is placed approximately 50 μm from the cell. Application is triggered when the tubing connected to the flowpipe is compressed by a valve controlled by the Pulse-software. Initially, low pH (in general, pH 6.5) is applied for 1 s every 45 s. The sample interval during application is 550 μs. After stable responses are obtained, the extracellular saline as well as the low-pH solution are switched to solutions containing the compound to be tested. The compound is present until responses of a repeatable amplitude are achieved. Current amplitudes are measured at the peak of the responses, and effect of the compounds is calculated as the amplitude at compound equilibrium divided by the amplitude of the current evoked by the pulse just before the compound was included.
The following salt solutions are used: extracellular solution (mM): NaCl (140), KCl (4), CaCl2 (2), MgCl2 (4), HEPES (10, pH 7.4); intracellular solution (mM): KCl (120), KOH (31), MgCl2 (1.785), […] (10), HEPES (10, pH 7.2). In general, compounds for testing are dissolved in 50% DMSO at 500 fold the highest concentration used.
The cDNA for ASIC1a and ASIC3 can be cloned from rat poly(A)^+ mRNA and put into expression vectors according to Hesselager et al. (J Biol Chem. 279(12):11006-15 2004). All constructs are expressed in CHO-K1 cells (ATCC no. CCL61). CHO-K1 cells are cultured at 37° C. in a humidified atmosphere of 5% CO2 and 95% air and passaged twice every week. The cells are maintained in DMEM (10 mM HEPES, 2 mM glutamax) supplemented with 10% fetal bovine serum and 2 mM L-proline (Life Technologies). […]

[2] = target: T2, ASIC3 (Rattus norvegicus, UniProt O35240); test: whole cell patch clamp electrophysiology, ASIC3; assay type: cell-based
T2 construct: expressed in transfected cells
T2 sequence (O35240 1-533): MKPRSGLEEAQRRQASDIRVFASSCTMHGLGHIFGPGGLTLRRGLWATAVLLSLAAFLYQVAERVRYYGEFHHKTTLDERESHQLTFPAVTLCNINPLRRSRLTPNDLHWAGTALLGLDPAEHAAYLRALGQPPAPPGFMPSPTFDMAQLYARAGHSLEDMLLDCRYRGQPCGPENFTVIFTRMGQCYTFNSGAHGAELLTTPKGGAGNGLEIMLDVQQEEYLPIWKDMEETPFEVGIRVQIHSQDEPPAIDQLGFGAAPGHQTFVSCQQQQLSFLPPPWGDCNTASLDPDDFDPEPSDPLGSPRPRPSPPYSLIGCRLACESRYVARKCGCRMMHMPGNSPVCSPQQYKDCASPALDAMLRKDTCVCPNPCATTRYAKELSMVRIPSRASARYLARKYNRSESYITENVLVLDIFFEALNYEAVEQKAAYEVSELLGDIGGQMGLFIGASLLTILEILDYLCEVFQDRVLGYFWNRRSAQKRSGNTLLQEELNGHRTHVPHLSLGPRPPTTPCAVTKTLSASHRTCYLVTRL
Description: as §1, §2, §3, §4
as §5, with “included. […]” for “included.”

`C=CC1CN2CCC1CC2[C@@H](OC(=O)CCC1CCCC1)c1ccnc2ccccc12` (some centres unmarked) [Compound A] was tested, and the “Fraction of Control, ASIC1a - pH Dependency” value ([1]; pH 5.0) was “greater than .85”, the “Fraction of Control, ASIC1a - pH Dependency” value ([1]; pH 6.0) was “greater than .85” and the IC50 ([1]; patch clamp, HEK cells, pH 6.5) was 17 to 23 µM. The “Fraction of Control, ASIC3 - pH Dependency” value ([2]; 10 μM compound, pH 5.0) was “greater than .75” and the IC50 ([2]; patch clamp, pH 6.5) was 4 to 6 µM.
